Literature values as cited in patent US20040018533A1, “Diagnosing predisposition to fat deposition and therapeutic methods for reducing fat deposition and treatment of associated conditions” (priority 2002, published 2004).

Molecular target: P2X4 (Homo sapiens, UniProt Q99571)
Settings: Xenopus oocytes

Chain of P2X4 (Q99571 whole entry, species assumed): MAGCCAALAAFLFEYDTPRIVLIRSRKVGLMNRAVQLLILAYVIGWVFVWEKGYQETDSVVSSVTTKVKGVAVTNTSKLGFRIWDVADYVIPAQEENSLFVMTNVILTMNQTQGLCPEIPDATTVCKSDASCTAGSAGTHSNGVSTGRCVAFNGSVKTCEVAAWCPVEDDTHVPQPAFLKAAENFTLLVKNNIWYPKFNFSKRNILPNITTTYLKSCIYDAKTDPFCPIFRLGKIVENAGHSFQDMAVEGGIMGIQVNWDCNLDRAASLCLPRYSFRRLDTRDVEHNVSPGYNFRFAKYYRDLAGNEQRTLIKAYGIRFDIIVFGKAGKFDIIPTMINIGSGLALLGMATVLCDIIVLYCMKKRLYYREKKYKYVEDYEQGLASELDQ

CCO [ethanol]
effect on P2X4 function: inhibits P2X4 function
